Values quoted from earlier work in patent US7579333B2 (Teva Pharmaceutical Industries Ltd., priority 2004, dated 2009).

Key:
new vertebral fractures = conditions: post-menopausal women with osteoporosis
[1] = tested on: femoral bone mass density; conditions: 1 year; 60 mg/day raloxifene, 10 mg/day alendronate; 331 patients
[2] = in vivo

Row | SMILES | decrease in incidence of new vertebral fractures (new vertebral fractures) | improvement in femoral bone mass density [1] | pH at which best absorbed [2]
1 | O=C(c1ccc(OCCN2CCCCC2)cc1)c1c(-c2ccc(O)cc2)sc2cc(O)ccc12 [raloxifene] | 30-50% | 1.7% | 
2 | NCCCC(O)(P(=O)(O)O)P(=O)(O)O [alendronate] |  |  | ~6
